# From patent publication US20090197852A9 (priority 2001, published 2009)
# Entries after “also recorded” stand apart in the source; their conditions may differ. Read-outs that look alike come from different tables or passages of the source.
# Assays:
# [1] = free base form; cited from earlier work
# [2] = patients treated at 56 mg/m^2; cited from earlier work
# [3] = population PK analysis; cited from earlier work
# [4] = 80 mg/m^2 dose level, daily x5, cited from earlier work; for Cmax: read-out: plasma Cmax
# [5] = cellular assays; cited from earlier work
# breast cancer cells = settings: cited from earlier work
# advanced solid tumors = settings: cited from earlier work
# [6] = Dose limiting toxicity and adverse events in trial of 17-AAG with trastuzumab; settings: 450 mg/m^2/single administration of 17-AAG once weekly for four weeks
# Method: The invention was tested in an open-label, dose escalating clinical trial. […] Metastatic disease, if present, was not progressing so as to required palliative treatment. […] Patients were assessed in 4-week cycles.
# Dosing. […] If two or more of six evaluable patients entered in a cohort experienced a DLT then the MTD was exceeded; if the previous dose level produced DLT in no more than 1 out of 6 patients, then this dose was considered the MTD and was used for all subsequent patients entered in the phase 2 portion of the study.
# [7] = cited from earlier work
# [8] = system: colon adenocarcinoma cells; settings: cited from earlier work
# solid tumors = settings: cited from earlier work
# [9] = system: lung cancer cells with wild-type Rb; settings: cited from earlier work
# [10] = system: solid tumors and lymphomas; settings: 3 weeks out of a 4 week cycle, cited from earlier work
# [11] = system: SKBr3 breast cancer cells; settings: cited from earlier work
# NSCLC cells = settings: cited from earlier work
# metastatic melanoma = settings: cited from earlier work
# clinical = settings: human, in vivo; for AUC / AUC(0-t) / Tmax / Cmax: iv; for Cmax: first dose
# Method: Patients were assessed in 4-week cycles.
# PK assessment. PK sampling was obtained during the first treatment cycle only. […] Plasma concentrations were determined by a validated liquid chromatography-mass spectrometry (LC-MS) method.
# For patients with a body surface area greater than 2.4 m^2, dosing was calculated using a maximum BSA of 2.4 m^2.
# Plasma samples from some of the patients were assayed using a validated good laboratory practice (GLP) compliant analytical method.
# All of the patients' plasma samples were analyzed.
# leukemia cells = settings: cited from earlier work
# MEXF 276L melanoma cells = settings: cited from earlier work
# [12] = Cohort 1, 17-AAG 225 mg/m^2 IV over 120 min with trastuzumab, first dose, mean
# [13] = Cohort 2, 17-AAG 300 mg/m^2 IV over 120 min with trastuzumab, first dose, mean
# [14] = Cohort 3, 17-AAG 375 mg/m^2 IV over 120 min with trastuzumab, first dose, mean
# [15] = Cohort 4, 17-AAG 450 mg/m^2 IV over 120 min with trastuzumab, first dose, mean
# [16] = All cohorts combined (225-450 mg/m^2), mean
# 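For AUCext in this document: Open-label dose-escalation clinical trial, plasma drug levels measured by validated LC-MS, sampling during the first 4-week treatment cycle only.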
# 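For AUCtotal in this document: Open-label dose-escalation clinical trial, plasma drug levels measured by validated LC-MS, sampling during the first 4-week treatment cycle only.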
# 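For MRT in this document: Open-label dose-escalation clinical trial, plasma drug levels measured by validated LC-MS, sampling during the first 4-week treatment cycle only.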
# 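For Vss in this document: Open-label dose-escalation clinical trial, plasma drug levels measured by validated LC-MS, sampling during the first 4-week treatment cycle only.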
smiles,measurement,setting,value
"C=CCNc1c(O)cc2c(O)c1C[C@@H](C)C[C@H](OC)[C@H](O)[C@@H](C)/C=C(\C)[C@H](OC(N)=O)[C@@H](OC)/C=C\C=C(/C)C(=O)N2 [17-AAGH2, 17-allylamino-18,21-dihydro-17-demethoxygeldanamycin]",stability to air oxidation,[1],air oxidizes readily
"CO[C@H]1/C=C\C=C(/C)C(=O)NC2=CC(=O)C(N)=C(C[C@@H](C)C[C@H](OC)[C@H](O)[C@@H](C)/C=C(\C)[C@@H]1OC(N)=O)C2=O [17-AG, 17-amino-17-demethoxygeldanamycin]",Clearance,[2],30.8 L/h/m^2
same,Vz,[2],203 L/m^2
same,average AUC,[2],"5,558 nM*h"
same,average t1/2,[2],8.6 h
same,Clearance,[3],21.3 L/h
same,t1/2,[4],1.75 h
same,Cmax,[4],607 nM
same,activity relative to 17-AAG,[5],equipotent; also recorded: activity approximately equal to that of 17-AAG
"C=CCNC1=C2C[C@@H](C)C[C@H](OC)[C@H](O)[C@@H](C)/C=C(\C)[C@H](OC(N)=O)[C@@H](OC)/C=C\C=C(/C)C(=O)NC(=CC1=O)C2=O [17-AAG, 17-allylamino-17-demethoxygeldanamycin]",effect of exposure on client proteins,breast cancer cells,depletion of steroid receptors
same,Clearance,[2],19.9 L/h/m^2
same,Vz,[2],93 L/m^2
same,average AUC,[2],"6,708 nM*h"
same,dose at which nausea and vomiting secondary to pancreatitis and grade 3 fatigue were observed,advanced solid tumors; weekly for 3 out of every 4 weeks,395 mg/m^2
same,objective tumor responses,advanced solid tumors; weekly or twice weekly schedules,No objective tumor responses have been observed in this trial to date
same,DLT,[6],without reaching DLT in any treated patient
same,relation between dose and area under the curve (AUC),[7]; dose levels studied,linear correlation
same,mean volume of distribution,[7]; highest dose level 450 mg/m^2,142.6 L
same,effect of exposure on client proteins,[8],"depletion of Raf-1, c-Akt, and Erk1/2"
same,dose limiting toxicity,solid tumors; daily for 5 days every 3 weeks,dose limiting reversible hepatotoxicity
same,maximum tolerated dose (MTD) and recommended Phase 2 dose,solid tumors; daily for 5 days every 3 weeks,40 mg/m^2
same,objective tumor responses,solid tumors; doses up to 110 mg/m^2 daily for 5 days every 3 weeks,No objective tumor responses were observed
same,effect of exposure on client proteins,[9],"degradation of cdk4, cdk6, and cyclin E"
same,MTD,[10]; weekly 17-AAG,308 mg/m^2
same,objective tumor responses,[10]; weekly,No objective tumor responses have been observed to date in this trial
same,effect of exposure on client proteins,[11],depletion of erbB2 and destabilization of Raf-1 and mutant p53
same,effect of exposure on client proteins,NSCLC cells,depletion of erbB1 and erbB2 levels
same,Cmax,[4],2700 nM
same,complete or partial responses,metastatic melanoma; once weekly,No complete or partial responses were recorded
same,dose at which dose limiting toxicity was observed,"metastatic melanoma; once weekly, elevation of AST",450 mg/m^2/week
same,stable disease,metastatic melanoma; patients treated at 320-450 mg/m^2,two showed radiologically documented long term stable disease
same,MRT,"All cohorts combined, Max",11.44 h
same,Vss,"All cohorts combined, Max",308.74 L/m^2
same,t1/2,"All cohorts combined, Max",11.42 h
same,MRT,"All cohorts combined, Min",2.44 h
same,t1/2,"All cohorts combined, Min",1.33 h
same,AUCext,[12],7.1%
same,AUCtotal,[12],"8,539.3 ng/mL*h"
same,AUMCtotal,[12],"29,168 ng/mL*(h^2)"
same,Cmax,[12],"3,257.5 ng/mL"
same,Lz,[12],0.3804 h⁻¹
same,AUCext,[13],1.6%
same,AUCtotal,[13],"16,163 ng/mL*h"
same,AUMCtotal,[13],"107,072 ng/mL*(h^2)"
same,Lz,[13],0.1637 h⁻¹
same,AUCext,[14],2.2%
same,AUCtotal,[14],"27,983 ng/mL*h"
same,AUMCtotal,[14],"124,179 ng/mL*(h^2)"
same,Lz,[14],0.1996 h⁻¹
same,AUCext,[15],2.8%
same,AUCtotal,[15],"28,425 ng/mL*h"
same,AUMCtotal,[15],"65,954 ng/mL*(h^2)"
same,Lz,[15],0.2037 h⁻¹
same,Clearance,clinical; [16],536 mL/min
same,Clearance,"clinical; All cohorts combined, Median",497 mL/min
same,MRT,clinical; [16],4.71 h
same,MRT,"clinical; All cohorts combined, Median",4.26 h
same,Vd,"clinical; Vss, All cohorts combined (225-450 mg/m^2), mean",147 ± 94.8 L
same,Vd,"clinical; Vss, All cohorts combined, Median",128 L
same,Vd,"clinical; Vz, All cohorts combined (225-450 mg/m^2), mean",187 ± 156 L
same,Vd,"clinical; Vz, All cohorts combined, Median",146 L
same,AUC,clinical; 225 mg/m2,588 ng·h/mL
same,AUC(0-t),clinical; 225 mg/m2,7950 ng·h/mL
same,Tmax,clinical; 225 mg/m2,1.8 h
same,Cmax,"clinical; 225 mg/m2, Cmax, Cohort 1, 17-AAG 225 mg/m^2 IV over 120 min with trastuzumab, mean",3260 ng/mL
same,AUC,clinical; 300 mg/m2,281 ng·h/mL
same,AUC(0-t),clinical; 300 mg/m2,15900 ng·h/mL
same,Tmax,clinical; 300 mg/m2,1.9 h
same,Cmax,"clinical; 300 mg/m2, Cmax, Cohort 2, 17-AAG 300 mg/m^2 IV over 120 min with trastuzumab, mean",4050 ng/mL
same,AUC,clinical; 375 mg/m2,490 ng·h/mL
same,AUC(0-t),clinical; 375 mg/m2,27500 ng·h/mL
same,Tmax,clinical; 375 mg/m2,1.9 h
same,Cmax,"clinical; 375 mg/m2, Cmax, Cohort 3, 17-AAG 375 mg/m^2 IV over 120 min with trastuzumab, mean",9400 ng/mL
same,AUC,clinical; 450 mg/m2,558 ng·h/mL
same,AUC(0-t),clinical; 450 mg/m2,27900 ng·h/mL
same,Tmax,clinical; 450 mg/m2,2 h
same,Cmax,"clinical; 450 mg/m2, Cmax, Cohort 4, 17-AAG 450 mg/m^2 IV over 120 min with trastuzumab, mean",8110 ng/mL
same,half-life,"clinical; t1/2, All cohorts combined (225-450 mg/m^2), mean",4.13 ± 2.48 h
same,half-life,"clinical; t1/2, All cohorts combined, Median",3.42 h
same,effect of exposure on client proteins,leukemia cells,down-regulation of intracellular Bcr-Abl and c-Raf proteins and reduction of Akt kinase activity
same,effect of exposure on client proteins,MEXF 276L melanoma cells,depletion of Hsp90 and down-regulation of Raf-1 and erbB2
